Measured values from US20230165965A1, “NEW COUMARIN-POLYMER CONJUGATES AND USES THEREOF” (Onyel Biotech S.r.l., priority 2020, published 2023).
Like-named read-outs stand apart in the source and are kept apart here.

What was measured:
[1] = Single-photon absorption spectra analysis of coumarin derivatives; format: physicochemical
Method: Table 1, below, reports the absorbance spectra analysis of selected coumarin derivatives dissolved in PBS at pH 7.4, the maximum single photon absorption wavelengths in specific solvents are indicated.
Selected coumarin derivatives were dissolved in DMSO at a concentration of 5 mg/ml and diluted 1:500 in PBS, pH 7.4. The absorption spectra were recorded on an Evolution 201 UV-Vis spectrophotometer (Thermo Fisher Scientific, Waltham, Mass., USA) in the wavelength range of 250-450 nm.

[2] = tested on: human small intestinal organoids (hSIOs); format: cell-based; conditions: open square-box hydrogel, up to 8 days of culture
Text: (§1) ImageJ software were used for adjustments of levels and contrast, maximum and standard deviation intensity projections, 3D reconstructions and thresholding to create binary mask used for directionality and ferret angle measurements. To quantify the directionality of i3D bioprinted cells, at least 9 fluorescence images of independent biological triplicates for each sample were converted in binary masks, then analyzed with directionality plugin of ImageJ software (that indicates the amount of structures in a given direction). To quantify the shape of enclosed hSIOs, at least 9 fluorescence images of independent biological triplicates for each sample were converted in binary masks, then analyzed with measure plugin of ImageJ software to quantify the Feret's angle (the angle between the longest distance of the axis of any two points along the selection boundary (Feret's diameter) and a line parallel to the x-axis of the image).

[3] = tested on: HUVEC cells; conditions: seeded on hydrogels
Method: HUVEC were transduced with a lentiviral vector encoding for eGFP (3) and cultured in Endothelial Growth Media (EGM, Lonza). […] After culture, cells were fixed in 4% (w/v) paraformaldehyde (PFA, Sigma-Aldrich) in PBS for 7 min at room temperature and maintained at 4° C. in PBS until use. […] After culture, cells were fixed in 4% (w/v) paraformaldehyde (PFA, Sigma-Aldrich) in PBS for 7 min at room temperature and maintained at 4° C. in PBS until use.

[4] = tested on: Murine muscle-derived stem cells (MuSC)
Method: Cells were expanded for 1 passage at 37° C. in cell incubator, using proliferating medium composed by DMEM supplemented with 20% horse serum, 10% fetal bovine serum (Gibco), 1% chicken embryo extract (Sera Laboratories International), bFGF ([…], Invitrogen #PHG0264) and 1% Pen/Strep (Thermofisher). […] Samples were cultured in proliferating media and analyzed 2 days after 3D bioprinting (cell directionality was quantified as reported above). […] After 5 days of culture in proliferating medium, differentiation medium (DMEM supplemented with 2% horse serum and 1% Pen/Strep) was used for the following 5 days of cell culture. After 10 days, samples were fixed in 4% (w/v) paraformaldehyde (PFA, Sigma-Aldrich) in PBS for 7 min at room temperature and maintained at 4° C. in PBS until use.
as §1

[5] = tested on: skeletal muscle; conditions: GFP+MuSC/mCherry+FB-laden, i3D bioprinted
Method: (§2) Mice were anaesthetized using i.p. injection of Zoletil® 50/50 (40 mg/kg) and Rompun® 2% Xilazina (5 mg/kg) in physiologic solution. Induction of deep surgical anaesthesia was confirmed by absence of reaction to hind foot pinch. The surgical procedure underwent in aseptic conditions (skin preparation, sterilized instruments, gloves and drapes). […] For blood flow analysis, Rhodamine B isothiocyanate-Dextran (Sigma, R9379) was injected in tail vein at 50 mg/mL in physiologic solution. When required, skin wound was closed with Vicryl 6-0 suture and no movement or space restriction were applied to animals after treatments. At the required time point, animals were deeply anesthetized, subjected to stereomicroscope and/or 2P intravital imaging, then sacrificed for tissues collection.
ImageJ software were used for adjustments of levels and contrast, maximum and standard deviation intensity projections, 3D reconstructions and thresholding to create binary mask used for directionality and ferret angle measurements. To quantify the directionality of i3D bioprinted cells, at least 9 fluorescence images of independent biological triplicates for each sample were converted in binary masks, then analyzed with directionality plugin of ImageJ software (that indicates the amount of structures in a given direction). […]

[6] = tested on: Fibroblasts (FBs); conditions: ΔZ up to 150 μm, interspace down to 10 μm
Method: For 3D cell laden culture, 10^4 cells were seeded into Matrigel, or Matrigel or CMMC-Gel exposed to UV light for 3 minutes at an irradiation distance of 3 millimeters, located in a 24 multiwell culture dish, cultured for 2 days at 37° C. and 5% CO2 in cell incubator before performing cell viability assay as described above. […] 2P-cell laden constructs were analyzed by imaging or AFM as described above.

[7] = tested on: mCherry+FBs; conditions: for organization of donor mCherry+FBs: under epimysium, 21 days
Method: as §2

[8] = Atomic force measurement (AFM) of hydrogel Young's modulus; format: physicochemical; conditions: 1-photon UV mediated cycloaddition
Method: With the aim to provide glass surface HCCA-groups for covalent bonding HCC-branched polymers solutions were drop-cast onto glass coverslip previously functionalized with HCCA- as described in Section 10. HCC-4arm PEG and HCC-8arm PEG were dissolved in PBS (300 mg/mL) at room temperature under agitation. HCC-Gel was dissolved in PBS (100 mg/mL) under agitation at 60° C. for 10 min. When coverslips were used, a second coverslip was placed on top of the drop of HCC-polymeric solutions to limit water evaporation during the irradiation process. […] Laser power is measured before objective back aperture, corresponding to about 1% of the power on the sample plane. […]
For crosslinking reaction analysis, 5 μL CMMC-4 arm PEG (300 mg/mL) or CMMC-Gel (100 mg/mL) solution was located in a humid chamber at 3 cm from a 365 nm UV LED Gen 2 Emitter LZ4-04UV00 (Led Engin) and irradiated for different minutes as reported. When CMMC-Gel solution was analysed at different concentrations (100 mg/mL, 120 mg/mL, 140 mg/mL, 160 mg/mL, 180 mg/mL and 200 mg/mL), 5 μL of solution was located in a humid chamber at 3 cm from a 365 nm UV LED Gen 2 Emitter LZ4-04UV00 (Led Engin) and irradiated for 3 minutes. […]
The Young's modulus was calculated applying a fit of the Hertz model to the force curve, assuming a Poisson ratio of 0.5. […]

Question: Which “Abs λ” value ([1]; Solvent: Ethanol) does the source give for Cc1cc(=O)oc2cc(OCC(=O)O)ccc12 [7-Carboxymethoxy-4-methylcoumarin] here?
Answer: 321 nm

Question: With CCOC(=O)c1cc2ccc(O)cc2oc1=O [Ethyl 7-Hydroxycoumarin-3-carboxylate] as the molecule, how does the “Abs λ” value ([1]; Solvent: Ethanol) read?
Answer: 403 nm

Question: With O=c1ccc2ccc(O)cc2o1 [7-Hydroxycoumarin] as the molecule, how does the “Abs λ” value ([1]; Solvent: 95% Ethanol) read?
Answer: 325 nm

Question: Which “Abs λ” value ([1]; Solvent: Methanol) does the source give for Cc1c(CC(=O)O)c(=O)oc2cc(N)ccc12 [7-Amino-4-methyl-3-coumarinylacetic acid] here?
Answer: 340 nm

Question: Which “Abs λ” value ([1]; Solvent: 95% Ethanol) does the source give for Cc1cc(=O)oc2cc(O)ccc12 [7-Hydroxy-4-methylcoumarin] here?
Answer: 322 nm

Question: For O=c1cc(C(F)(F)F)c2ccc(O)cc2o1 [7-Hydroxy-4-(trifluoromethyl)coumarin], which “Abs λ” value ([1]; Solvent: Ethanol) is on record?
Answer: 383 nm

Question: What does the source list for “7-hydroxycoumarin-3-carboxamide-gelatin [HCC-Gel]”?
Answer: columnar epithelium of enclosed hSIOs [2]: well-developed columnar epithelium; adhesion and culture of HUVEC cells [3]: supported adhesion and culture; cell directionality of MuSC ([4]; cuboid-shaped structures): randomly oriented; cell directionality of MuSC ([4]; elongated-shaped structures): oriented along major axis of the 3D structures; myotube formation ([4]; parallelepiped-shaped structures, 10 days of culture): support the formation of aligned multinucleated myotubes; de novo skeletal muscle tissue formation ([5]; 7 days): supports de novo skeletal muscle tissue formation; organization of donor GFP cells ([5]; one week): confined bundle of elongated GFP cells; adhesion of GFP FBs to parallelepiped-shaped hydrogels [6]: efficiently adhere; localization of donor mCherry+FBs ([7]; intra-dermal injection and i3D bioprinting across epidermis, 14 days): Elongated localization; organization of donor mCherry+FBs ([7]; i3D bioprinted parallelepiped-shaped constructs): elongated clusters; organization of donor mCherry+FBs ([7]; injected only (no i3D bioprinting)): rounded clusters

Question: Which “elastic modulus with increasing irradiation time” value [8] does the source give for “7-(carboxymethoxy)-4-methylcoumarin-gelatin [CMMC-Gel]” here?
Answer: increases to asymptotic values

Question: Which “Abs λ” value ([1]; solvent not given) does the source give for O=C(ON1C(=O)CCC1=O)c1cc2ccc(O)cc2oc1=O [7-Hydroxycoumarin-3-carboxylic acid N-succinimidyl ester] here?
Answer: 413 nm
